Data: PubChem BioAssay AID330 (DTP/NCI, 2004)
Several values for one entry are separate records, joined by “and”; a condition that tells them apart may be missing. Equal values may be shown once. Toxic doses and inconclusive results are not listed. Peptide text beside a SMILES is read from it.

Test system: P388 leukemia ip, CD2F1 mice, survival T/C
Experiment: NCI In Vivo Anticancer Drug Screen. Data for tumor model P388 Leukemia (intraperitoneal) in CD2F1 (CDF1) mice
Settings: endpoint: median survival time, higher = longer survival
Protocol: The antitumor activity of compounds was measured in mice bearing transplantable tumors. Survival or tumor size were measured and the results are expressed as the measurement made in the treated group (T) divided by the measurement made in the vehicle treated control group (C). The tumor model used in this assay is P388 Leukemia (intraperitoneal) in CD2F1 (CDF1) mice

[1] = dose: 50.0 mg/kg/injection, schedule: Q01DX005 (ip), vehicle: saline with Tween-80
[2] = dose: 100.0 mg/kg/injection, schedule: Q01DX005 (ip), vehicle: saline with Tween-80
[3] = dose: 100.0 mg/kg/injection, schedule: Q01DX001 (ip), vehicle: Klucel (hydroxypropylcellulose) (HPC)
[4] = dose: 200.0 mg/kg/injection, schedule: Q01DX001 (ip), vehicle: Klucel (hydroxypropylcellulose) (HPC)
[5] = dose: 200.0 mg/kg/injection, schedule: Q01DX005 (ip), vehicle: saline with Tween-80
[6] = dose: 400.0 mg/kg/injection, schedule: Q01DX001 (ip), vehicle: Klucel (hydroxypropylcellulose) (HPC)
[7] = dose: 60.0 mg/kg/injection, schedule: Q01DX005 (ip), vehicle: saline with Tween-80
[8] = dose: 120.0 mg/kg/injection, schedule: Q01DX005 (ip), vehicle: saline with Tween-80
[9] = dose: 240.0 mg/kg/injection, schedule: Q01DX005 (ip), vehicle: saline with Tween-80
[10] = dose: 1.25 mg/kg/injection, schedule: Q04DX002 (ip), vehicle: saline with Tween-80
[11] = dose: 2.5 mg/kg/injection, schedule: Q04DX002 (ip), vehicle: saline with Tween-80
[12] = dose: 100.0 mg/kg/injection, schedule: Q04DX003 (ip), vehicle: saline with Tween-80
[13] = dose: 200.0 mg/kg/injection, schedule: Q04DX003 (ip), vehicle: saline with Tween-80
[14] = dose: 400.0 mg/kg/injection, schedule: Q04DX003 (ip), vehicle: saline with Tween-80
[15] = dose: 25.0 mg/kg/injection, schedule: Q01DX009 (ip), vehicle: saline with Tween-80
[16] = dose: 50.0 mg/kg/injection, schedule: Q01DX009 (ip), vehicle: saline with Tween-80
[17] = dose: 100.0 mg/kg/injection, schedule: Q01DX009 (ip), vehicle: saline with Tween-80
[18] = dose: 50.0 mg/kg/injection, schedule: Q01DX005 (ip), vehicle: saline
[19] = dose: 100.0 mg/kg/injection, schedule: Q01DX005 (ip), vehicle: saline
[20] = dose: 200.0 mg/kg/injection, schedule: Q01DX005 (ip), vehicle: saline
[21] = dose: 50.0 mg/kg/injection, schedule: Q01DX005 (ip), vehicle: Klucel (hydroxypropylcellulose) (HPC)
[22] = dose: 100.0 mg/kg/injection, schedule: Q01DX005 (ip), vehicle: Klucel (hydroxypropylcellulose) (HPC)
[23] = dose: 200.0 mg/kg/injection, schedule: Q01DX009 (ip), vehicle: saline with Tween-80

SMILES: CCCCNC(=O)Nc1cccc2c(O)cccc12
- T/C (dose: 6.25 mg/kg/injection, schedule: Q01DX009 (ip), vehicle: DMSO): 94 % of control
- T/C (dose: 12.5 mg/kg/injection, schedule: Q01DX009 (ip), vehicle: DMSO): 87 % of control
- T/C (dose: 25.0 mg/kg/injection, schedule: Q01DX009 (ip), vehicle: DMSO): 87 % of control

SMILES: C1CCN(P2(N3CCCCC3)=NP(N3CCCCC3)(N3CCCCC3)=NP(N3CCCCC3)(N3CCCCC3)=NP(N3CCCCC3)(N3CCCCC3)=N2)CC1
- T/C [1]: 96 % of control
- T/C [2]: 88 % of control

SMILES: COc1ccc(C(=O)Cc2cc(OC)c(OC)cc2Br)cc1OC
- T/C [3]: 93 % of control
- T/C [4]: 101 % of control
- T/C [5]: 86 % of control
- T/C [6]: 99 % of control

SMILES: Cc1c(-c2c(Cl)cccc2Cl)noc1CN(C)C
- T/C [7]: 101 % of control
- T/C [8]: 100 % of control
- T/C [9]: 92 % of control

SMILES: O=Cc1cccc(C=O)c1
- T/C (dose: 0.63 mg/kg/injection, schedule: Q04DX002 (ip), vehicle: saline with Tween-80): 106 % of control
- T/C [10]: 105 % of control
- T/C [11]: 107 % of control

SMILES: COC1=C(C)C2CC(=O)OC3CC4C(C)CC(O)C(=O)C4(C)C(C1=O)C32C (configuration not stated)
- T/C (dose: 0.5 mg/kg/injection, schedule: Q01DX009 (ip), vehicle: saline + alcohol): 108 % of control
- T/C (dose: 1.0 mg/kg/injection, schedule: Q01DX009 (ip), vehicle: saline + alcohol): 106 % of control
- T/C (dose: 2.0 mg/kg/injection, schedule: Q01DX009 (ip), vehicle: saline + alcohol): 106 % of control
- T/C (dose: 4.0 mg/kg/injection, schedule: Q01DX009 (ip), vehicle: saline + alcohol): 104 % of control
- T/C (dose: 8.0 mg/kg/injection, schedule: Q01DX009 (ip), vehicle: saline + alcohol): 107 % of control

SMILES: CCCCC(CC)C(=O)N1CCOCC1 (configuration not stated)
- T/C [12]: 100 % of control
- T/C [13]: 100 % of control
- T/C [14]: 100 % of control

SMILES: CCCCCC(Nc1nncs1)Nc1nncs1
- T/C [7]: 94 % of control
- T/C [8]: 96 % of control
- T/C [9]: 105 % of control

SMILES: CC1(C)SC(C(NC(=O)Cc2ccccc2)C(=O)O)NC1C(=O)O (configuration not stated)
- T/C [12]: 90 % of control
- T/C [13]: 100 % of control
- T/C [14]: 104 % of control

SMILES: CCOC(=O)c1ccc2c(c1)C(C)(SC)C(=O)N2 (configuration not stated)
- T/C [15]: 96 % of control
- T/C [16]: 100 % of control
- T/C [17]: 93 % of control

SMILES: O=c1nc2n(CC(O)C(O)C(O)C(O)CO)c3ccc(Cl)cc3nc-2c(=O)[nH]1 (configuration not stated)
- T/C [18]: 104 % of control
- T/C [19]: 104 % of control
- T/C [20]: 104 % of control

SMILES: CCOC(=O)C1C(c2cccc(OC)c2O)c2cc3c(cc2OC1(C)N1CCCC1)OCO3 (configuration not stated)
- T/C [7]: 99 % of control
- T/C [8]: 92 % of control
- T/C [9]: 89 % of control

SMILES: NCCc1ccncc1
- T/C (dose: 60.0 mg/kg/injection, schedule: Q01DX005 (ip), vehicle: suspension in saline): 98 % of control
- T/C (dose: 120.0 mg/kg/injection, schedule: Q01DX005 (ip), vehicle: suspension in saline): 94 % of control

SMILES: COc1cc2ccnc(C=O)c2cc1OC
- T/C [15]: 110 % of control
- T/C [16]: 110 % of control
- T/C [17]: 107 % of control

SMILES: N#CC(C#N)=C(C#N)Nc1ccc(F)cc1
- T/C (dose: 30.0 mg/kg/injection, schedule: Q01DX005 (ip), vehicle: Klucel (hydroxypropylcellulose) (HPC)): 91 % of control
- T/C (dose: 60.0 mg/kg/injection, schedule: Q01DX005 (ip), vehicle: Klucel (hydroxypropylcellulose) (HPC)): 90 % of control

SMILES: O=C1c2ccccc2C(C2c3ccccc3C(=O)c3cc(Br)ccc32)c2ccc(Br)cc21 (configuration not stated)
- T/C (dose: 12.5 mg/kg/injection, schedule: Q01DX005 (ip), vehicle: Klucel (hydroxypropylcellulose) (HPC)): 88 % of control
- T/C (dose: 25.0 mg/kg/injection, schedule: Q01DX005 (ip), vehicle: Klucel (hydroxypropylcellulose) (HPC)): 97 % of control
- T/C [21]: 90 % of control
- T/C [22]: 86 % of control

SMILES: CCCCCCCCCCCCCCCCS(=O)(=O)c1ccc(S(=O)(=O)F)cc1NC(C)=O
- T/C (dose: 50.0 mg/kg/injection, schedule: Q04DX003 (ip), vehicle: saline sonified): 104 % of control
- T/C (dose: 100.0 mg/kg/injection, schedule: Q04DX003 (ip), vehicle: saline sonified): 95 % of control
- T/C (dose: 200.0 mg/kg/injection, schedule: Q04DX003 (ip), vehicle: saline sonified): 100 % of control

SMILES: NC(=S)N/N=C/c1c(Cl)nc2sccn12
- T/C [3]: 92 % of control
- T/C [4]: 97 % of control
- T/C [6]: 97 % of control

SMILES: O=C1SC2(CCCCC2)SC1=O
- T/C (dose: 50.0 mg/kg/injection, schedule: Q04DX003 (ip), vehicle: saline with Tween-80): 109 % of control
- T/C [12]: 104 % of control
- T/C [13]: 104 % of control

SMILES: CN1C(=O)C23CC4=CC=CC(O)C4N2C(=O)C1(CO)SS3 (configuration not stated)
- T/C (dose: 0.62 mg/kg/injection, schedule: Q04DX002 (ip), vehicle: saline with Tween-80): 103 % of control
- T/C [10]: 104 % of control
- T/C [11]: 119 % of control

SMILES: CSc1ccc2ns[s+]c2c1
- T/C [1]: 104 % of control
- T/C [2]: 102 % of control
- T/C [5]: 101 % of control

SMILES: COc1ccc(Cc2cc3c(cc2OCC(N)=O)OCO3)cc1
- T/C (dose: 6.25 mg/kg/injection, schedule: Q01DX005 (ip), vehicle: saline with Tween-80): 90 % of control
- T/C (dose: 12.5 mg/kg/injection, schedule: Q01DX005 (ip), vehicle: saline with Tween-80): 90 % of control

SMILES: N#C/C(=C1C=C(Br)/C(=N\O)C=C\1Cl)c1cccc2ccccc12
- T/C [16]: 103 % of control
- T/C [17]: 102 % of control
- T/C [23]: 102 % of control
- T/C (dose: 400.0 mg/kg/injection, schedule: Q01DX009 (ip), vehicle: saline with Tween-80): 115 % of control

SMILES: Nc1ncnc2nc(N=Nc3c(O)ccc4ccccc34)[nH]c12
- T/C [1]: 104 % of control
- T/C [2]: 93 % of control

SMILES: NC(N)=NCCCC(N)C(=O)NC(CCCN=C(N)N)C(=O)O (stereo not drawn) (H-Arg-Arg-OH; configuration not given here)
- T/C [21]: 103 % of control
- T/C [22]: 100 % of control
- T/C (dose: 200.0 mg/kg/injection, schedule: Q01DX005 (ip), vehicle: Klucel (hydroxypropylcellulose) (HPC)): 100 % of control

SMILES: CC(=O)OC(C(=O)N1CC1)C(OC(C)=O)C(OC(C)=O)C(OC(C)=O)C(=O)N1CC1 (configuration not stated)
- T/C (dose: 25.0 mg/kg/injection, schedule: Q01DX009 (ip), vehicle: Klucel (hydroxypropylcellulose) (HPC)): 217 % of control
- T/C (dose: 50.0 mg/kg/injection, schedule: Q01DX009 (ip), vehicle: Klucel (hydroxypropylcellulose) (HPC)): 237 % of control and 255 % of control
- T/C (dose: 100.0 mg/kg/injection, schedule: Q01DX009 (ip), vehicle: Klucel (hydroxypropylcellulose) (HPC)): 88 % of control

SMILES: O=C(O)CCOCCC(=O)O
- T/C [18]: 97 % of control
- T/C [19]: 97 % of control
- T/C [20]: 97 % of control

SMILES: CC1=C2CC(C)(C)/C=C\C(=O)/C(C)=C\C3=CCCC3(O2)C1=O (configuration not stated)
- T/C (dose: 5.0 mg/kg/injection, schedule: Q01DX005 (ip), vehicle: Klucel (hydroxypropylcellulose) (HPC)): 110 % of control
- T/C (dose: 10.0 mg/kg/injection, schedule: Q01DX005 (ip), vehicle: Klucel (hydroxypropylcellulose) (HPC)): 120 % of control
- T/C (dose: 20.0 mg/kg/injection, schedule: Q01DX005 (ip), vehicle: Klucel (hydroxypropylcellulose) (HPC)): 107 % of control

SMILES: FC(F)(F)COc1ccc(-c2nnc(-c3ccc(OCC(F)(F)F)cc3)o2)cc1
- T/C (dose: 100.0 mg/kg/injection, schedule: Q04DX002 (ip), vehicle: saline with Tween-80): 90 % of control
- T/C (dose: 200.0 mg/kg/injection, schedule: Q04DX002 (ip), vehicle: saline with Tween-80): 87 % of control
- T/C (dose: 400.0 mg/kg/injection, schedule: Q04DX002 (ip), vehicle: saline with Tween-80): 86 % of control

SMILES: CC(=O)[O-].O=C(N/N=C/c1ccccc1[O-])c1ccccc1.[Zn+2]
- T/C [7]: 95 % of control
- T/C [8]: 106 % of control

SMILES: O=C(O)CCCCC1SCC2NC(=O)NC21 (configuration not stated)
- T/C [16]: 100 % of control
- T/C [17]: 108 % of control
- T/C [23]: 108 % of control
